In US9394297B2, “Amides as pim inhibitors” (AMGEN INC., priority 2012, dated 2016):
Like-named read-outs stand apart in the source and are kept apart here.

Experiments:
[1] = target: Pim-1 (Homo sapiens (Human), UniProt P11309); test: Pim-Mn enzyme assay (HTRF, 384-well), Pim-1; type: biochemical; conditions: Pim-1 enzyme 5 pM, ATP 1.5 μM, BAD (S112) 0.5 μM, HTRF, 22-point curve; read-out: Pim-1-Mn IC50 IP
[2] = target: Pim-2 (Homo sapiens (Human), UniProt Q9P1W9); test: Pim-Mn enzyme assay (HTRF, 384-well), Pim-2; type: biochemical; conditions: read-out: Pim-2-Mn IC50 IP
Sequence of Pim-2 (Q9P1W9 whole entry): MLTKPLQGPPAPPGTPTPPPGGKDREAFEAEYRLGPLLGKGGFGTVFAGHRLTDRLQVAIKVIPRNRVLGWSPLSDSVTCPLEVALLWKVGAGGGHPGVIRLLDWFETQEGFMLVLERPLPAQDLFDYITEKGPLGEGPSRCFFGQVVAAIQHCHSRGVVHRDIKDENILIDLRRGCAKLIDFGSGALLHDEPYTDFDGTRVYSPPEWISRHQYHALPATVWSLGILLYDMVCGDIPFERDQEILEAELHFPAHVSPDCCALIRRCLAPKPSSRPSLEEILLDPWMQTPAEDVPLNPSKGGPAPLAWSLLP

[3] = Pim-2 enzyme 0.5 pM, ATP 1.5 μM, BAD (S112) 0.5 μM, HTRF, 22-point curve

Sequence of Pim-1 (P11309 whole entry): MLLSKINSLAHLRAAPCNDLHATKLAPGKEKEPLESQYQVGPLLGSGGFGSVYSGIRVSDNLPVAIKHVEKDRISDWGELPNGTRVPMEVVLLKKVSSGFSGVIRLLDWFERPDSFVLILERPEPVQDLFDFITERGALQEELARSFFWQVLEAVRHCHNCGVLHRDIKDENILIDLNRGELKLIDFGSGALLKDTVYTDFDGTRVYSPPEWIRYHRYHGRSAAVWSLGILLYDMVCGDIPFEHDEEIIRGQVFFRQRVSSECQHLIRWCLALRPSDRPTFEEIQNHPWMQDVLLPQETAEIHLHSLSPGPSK

Row | SMILES | IC50 [1] [nM] | IC50 [2, 3] [nM] | IC50 [2] [nM]
1 | Cc1nc2cccc(-c3cc4c([nH]3)CCNC4=O)c2nc1NC1CN(C(=O)OC(C)(C)C)C1 [Example 149, tert-butyl 3-((3-methyl-8-(4-oxo-4,5,6,7-tetrahydro-1H-pyrrolo[3,2-c]pyridin-2-yl)quinoxalin-2-yl)amino)azetidine-1-carboxylate] | 20 | 33 | 
2 | Cc1nc2cccc(-c3[nH]c4c(c3Cl)C(=O)N[C@@H]4C)c2nc1NC1(C)CC1 [Example 454, (R)-3-chloro-6-methyl-2-(2-methyl-3-((1-methylcyclopropyl)amino)quinoxalin-5-yl)-5,6-dihydropyrrolo[3,4-b]pyrrol-4(1H)-one] | 0.255 | 0.599 | 
3 | Cn1c(Nc2ccccc2)nc2c(-c3cc4c([nH]3)CCNC4=O)cccc2c1=O [Example 266, 3-methyl-8-(4-oxo-4,5,6,7-tetrahydro-1H-pyrrolo[3,2-c]pyridin-2-yl)-2-(phenylamino)quinazolin-4(3H)-one] | 3.1 | 2 | 
4 | C[C@H]1NC(=O)c2cc(-c3cccc4c(=O)n(C5CCC5)c(NC(C)(C)C)nc34)[nH]c21 [Example 507, (R)-2-(tert-Butylamino)-3-cyclobutyl-8-(6-methyl-4-oxo-1,4,5,6-tetrahydropyrrolo[3,4-b]pyrrol-2-yl)quinazolin-4(3H)-one] | 0.3 | 0.6 | 
5 | Cc1nc2cccc(-c3cc4c([nH]3)C(Cc3ccc(Cl)cc3)CNC4=O)c2nc1N (racemic) [Example 273, rac-2-(3-amino-2-methyl-5-quinoxalinyl)-7-(4-chlorobenzyl)-1,5,6,7-tetrahydro-4H-pyrrolo[3,2-c]pyridin-4-one] | 39 | 19.1 | 
6 | CC#CCC1CNC(=O)c2cc(-c3cccc4nc(C)c(NC(C)(C)C)nc34)[nH]c21 (racemic) [Example 278, rac-2-(3-(tert-butylamino)-2-methyl-5-quinoxalinyl)-7-(2-butyn-1-yl)-1,5,6,7-tetrahydro-4H-pyrrolo[3,2-c]pyridin-4-one] | 3.1 | 10.5 | 
7 | Cc1nc2cccc(-c3cc4c([nH]3)CCNC4=O)c2nc1OCC(C)(C)C [Example 152, 2-(2-methyl-3-(neopentyloxy)quinoxalin-5-yl)-6,7-dihydro-1H-pyrrolo[3,2-c]pyridin-4(5H)-one] | 54.2 | 44.7 | 
8 | Cc1nc2cccc(-c3cc4c([nH]3)CCNC4=O)c2nc1N[C@H]1C[C@@H](NCCF)C1 [Example 477, 2-(3-(((1s,3s)-3-((2-fluoroethyl)amino)cyclobutyl)amino)-2-methylquinoxalin-5-yl)-6,7-dihydro-1H-pyrrolo[3,2-c]pyridin-4(5H)-one] | 1 | 1 | 
9 | CC(=O)N1CCC[C@@H](Nc2nc3c(-c4cc5c([nH]4)CCNC5=O)cccc3nc2C)C1 [Example 241, 2-(3-(((3R)-1-acetyl-3-piperidinyl)amino)-2-methyl-5-quinoxalinyl)-1,5,6,7-tetrahydro-4H-pyrrolo[3,2-c]pyridin-4-one] | 43.7 | 68.4 | 
10 | CC(=O)N1CC[C@@H](Nc2nc3c(-c4cc5c([nH]4)CCNC5=O)cccc3nc2C)C1 [Example 64, 2-(3-(((3R)-1-acetyl-3-pyrrolidinyl)amino)-2-methyl-5-quinoxalinyl)-1,5,6,7-tetrahydro-4H-pyrrolo[3,2-c]pyridin-4-one] | 25.9 | 34.5 | 
11 | Cc1nc2cccc(-c3cc4c([nH]3)CCNC4=O)c2nc1N[C@H]1C[C@H](NC(=O)OC(C)(C)C)C1 [Example 436, tert-butyl ((1r,3s)-3-((3-methyl-8-(4-oxo-4,5,6,7-tetrahydro-1H-pyrrolo[3,2-c]pyridin-2-yl)quinoxalin-2-yl)amino)cyclobutyl)carbamate] | 4.1 | 8.2 | 
12 | Cc1nc2cccc(-c3cc4c([nH]3)CCNC4=O)c2nc1N[C@@H]1CCNC1 [Example 61, 2-(2-methyl-3-((3R)-3-pyrrolidinylamino)-5-quinoxalinyl)-1,5,6,7-tetrahydro-4H-pyrrolo[3,2-c]pyridin-4-one] | 6.1 | 26.4 | 
13 | CC[C@H]1NC(=O)c2cc(-c3cccc4c(=O)n(C)c(NC(C)(C)C)nc34)[nH]c21 [Example 505, (R)-2-(tert-butylamino)-8-(6-ethyl-4-oxo-1,4,5,6-tetrahydropyrrolo[3,4-b]pyrrol-2-yl)-3-methylquinazolin-4(3H)-one] | 0.8 | 0.8 | 
14 | Cc1nc2cccc(-c3cc4c([nH]3)CCNC4=O)c2nc1NC(C)(C)C(=O)O [Example 60, 2-methyl-N-(3-methyl-8-(4-oxo-4,5,6,7-tetrahydro-1H-pyrrolo[3,2-c]pyridin-2-yl)-2-quinoxalinyl)alanine] | 300 | 191 | 
15 | Cc1nc2cccc(-c3cc4c([nH]3)CCNC4=O)c2nc1NC1(C(F)(F)F)CC1 [Example 258, 2-(2-methyl-3-((1-(trifluoromethyl)cyclopropyl)amino)quinoxalin-5-yl)-6,7-dihydro-1H-pyrrolo[3,2-c]pyridin-4(5H)-one] | 0.694 | 0.338 | 
16 | Cc1nc2cccc(-c3cc4c(=O)[nH]cnc4[nH]3)c2nc1N [Example 262, 6-(3-amino-2-methylquinoxalin-5-yl)-3H-pyrrolo[2,3-d]pyrimidin-4(7H)-one] | 18.9 | 21 | 
17 | C[C@H]1NC(=O)c2cc(-c3cccc4c(=O)n(C)c(N[C@@H]5CCC[C@H](NC(=O)OC(C)(C)C)C5)nc34)[nH]c21 (racemic) [Example 509, (rac)-tert-butyl ((cis)-3-((3-methyl-8-((R)-6-methyl-4-oxo-1,4,5,6-tetrahydropyrrolo[3,4-b]pyrrol-2-yl)-4-oxo-3,4-dihydroquinazolin-2-yl)amino)cyclohexyl)carbamate] | 14 | 15 | 
18 | Cc1nc2cccc(-c3cc4c([nH]3)CCNC4=O)c2nc1NC(C)(C)C(F)(F)F [Example 254, 2-(2-methyl-3-((1,1,1-trifluoro-2-methylpropan-2-yl)amino)quinoxalin-5-yl)-6,7-dihydro-1H-pyrrolo[3,2-c]pyridin-4(5H)-one] | 2.67 | 2.24 | 
19 | CC(C)Nc1nc2c(-c3cc4c([nH]3)[C@@H](C)NC4=O)c(F)ccc2c(=O)n1C1CC1 [Example 490, (R)-3-cyclopropyl-7-fluoro-2-(isopropylamino)-8-(6-methyl-4-oxo-1,4,5,6-tetrahydropyrrolo[3,4-b]pyrrol-2-yl)quinazolin-4(3H)-one] | 0.1 | 0.2 | 
20 | CC(C)(C)Nc1nc2c(-c3cc4c([nH]3)CCNC4=O)cccc2nc1-c1ccccc1 [Example 438, 2-(3-(tert-Butylamino)-2-phenylquinoxalin-5-yl)-6,7-dihydro-1H-pyrrolo[3,2-c]pyridin-4(5H)-one] | 3.1 | 12 | 
21 | C[C@H]1NC(=O)c2cc(-c3cccc4c(=O)n(C5CCOCC5)c(NC(C)(C)C)nc34)[nH]c21 [Example 514, (R)-2-(tert-butylamino)-8-(6-methyl-4-oxo-1,4,5,6-tetrahydropyrrolo[3,4-b]pyrrol-2-yl)-3-(tetrahydro-2H-pyran-4-yl)quinazolin-4(3H)-one] | 0.287 | 0.671 | 
22 | C[C@H]1NC(=O)c2cc(-c3cccc4cnc(NC5(C)CC5)nc34)[nH]c21 [Example 499, (6R)-6-methyl-2-(2-((1-methylcyclopropyl)amino)-8-quinazolinyl)-5,6-dihydropyrrolo[3,4-b]pyrrol-4(1H)-one] | 1 | 1.6 | 
23 | CC(=O)N1CC[C@H](Nc2nc3c(-c4cc5c([nH]4)CCNC5=O)cccc3nc2C)C1 [Example 65, (S)-2-(3-((1-acetylpyrrolidin-3-yl)amino)-2-methylquinoxalin-5-yl)-6,7-dihydro-1H-pyrrolo[3,2-c]pyridin-4(5H)-one] | 57.8 |  | 72.8
24 | COC(=O)C(C)(C)Nc1nc2c(-c3cc4c([nH]3)CCNC4=O)cccc2nc1C [Example 57, Methyl 2-methyl-N-(3-methyl-8-(4-oxo-4,5,6,7-tetrahydro-1H-pyrrolo[3,2-c]pyridin-2-yl)-2-quinoxalinyl)alaninate] | 24.2 | 54.3 | 
25 | Cc1nc2cccc(-c3cc4c([nH]3)CCNC4=O)c2nc1N[C@@H]1CCCN(C(=O)OC(C)(C)C)C1 [Example 52, tert-butyl (3R)-3-((3-methyl-8-(4-oxo-4,5,6,7-tetrahydro-1H-pyrrolo[3,2-c]pyridin-2-yl)-2-quinoxalinyl)amino)-1-piperidinecarboxylate] | 149 | 403 | 
26 | Cc1nc2cccc(-c3cc4c([nH]3)CCNC4=O)c2nc1NC1CCNCC1 [Example 53, 2-(2-methyl-3-(4-piperidinylamino)-5-quinoxalinyl)-1,5,6,7-tetrahydro-4H-pyrrolo[3,2-c]pyridin-4-one] | 0.6 | 2.4 | 
27 | C[C@H]1NC(=O)c2cc(-c3cccc4c(=O)n(C5CC5)c(NC5(C)CCC5)nc34)[nH]c21 [Example 496, (R)-3-cyclopropyl-8-(6-methyl-4-oxo-1,4,5,6-tetrahydropyrrolo[3,4-b]pyrrol-2-yl)-2-((1-methylcyclobutyl)amino)quinazolin-4(3H)-one] | 0.2 | 0.2 | 
28 | C[C@H]1NC(=O)c2cc(-c3cccc4c(=O)n(CCCO)c(NC(C)(C)C)nc34)[nH]c21 [Example 500, 2-(tert-butylamino)-3-(3-hydroxypropyl)-8-((6R)-6-methyl-4-oxo-1,4,5,6-tetrahydropyrrolo[3,4-b]pyrrol-2-yl)-4(3H)-quinazolinone] | 0.12 | 0.11 | 
29 | CCn1c(NC2(C)CC2)nc2c(-c3cc4c([nH]3)[C@@H](C)NC4=O)c(F)ccc2c1=O [Example 513, (R)-3-Ethyl-7-fluoro-8-(6-methyl-4-oxo-1,4,5,6-tetrahydropyrrolo[3,4-b]pyrrol-2-yl)-2-((1-methylcyclopropyl)amino)quinazolin-4(3H)-one] | 0.013 | 0.0378 | 
